Measured values: ChEMBL document CHEMBL5335794, “Discovery of novel multifunctional ligands targeting GABA transporters, butyrylcholinesterase, β-secretase, and amyloid β aggregation as potential treatment of Alzheimer's disease” (Eur J Med Chem, 2023)

How the values were obtained:
[1] = target: T1, GABA transporter 2 (Mus musculus, UniProt P31651)
T1 sequence (P31651 whole entry): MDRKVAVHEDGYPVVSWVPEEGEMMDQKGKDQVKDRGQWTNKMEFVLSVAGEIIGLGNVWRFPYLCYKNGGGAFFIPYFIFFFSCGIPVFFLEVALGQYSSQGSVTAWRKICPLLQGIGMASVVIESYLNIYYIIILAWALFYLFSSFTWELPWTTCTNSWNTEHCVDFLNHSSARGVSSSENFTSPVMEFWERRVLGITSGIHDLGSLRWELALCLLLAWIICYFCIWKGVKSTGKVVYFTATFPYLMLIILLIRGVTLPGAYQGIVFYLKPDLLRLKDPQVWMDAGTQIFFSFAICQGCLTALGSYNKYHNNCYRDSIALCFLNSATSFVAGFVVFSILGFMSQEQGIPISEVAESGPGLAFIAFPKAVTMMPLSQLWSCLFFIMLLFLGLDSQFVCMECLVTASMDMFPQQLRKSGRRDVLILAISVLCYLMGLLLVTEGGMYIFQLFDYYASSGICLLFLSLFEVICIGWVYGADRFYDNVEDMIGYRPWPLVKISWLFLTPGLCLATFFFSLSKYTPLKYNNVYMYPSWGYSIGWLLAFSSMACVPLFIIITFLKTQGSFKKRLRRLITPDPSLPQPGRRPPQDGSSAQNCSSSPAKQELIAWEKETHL

[2] = target: T2, GABA transporter 4 (Mus musculus, UniProt P31650)
T2 sequence (P31650 whole entry): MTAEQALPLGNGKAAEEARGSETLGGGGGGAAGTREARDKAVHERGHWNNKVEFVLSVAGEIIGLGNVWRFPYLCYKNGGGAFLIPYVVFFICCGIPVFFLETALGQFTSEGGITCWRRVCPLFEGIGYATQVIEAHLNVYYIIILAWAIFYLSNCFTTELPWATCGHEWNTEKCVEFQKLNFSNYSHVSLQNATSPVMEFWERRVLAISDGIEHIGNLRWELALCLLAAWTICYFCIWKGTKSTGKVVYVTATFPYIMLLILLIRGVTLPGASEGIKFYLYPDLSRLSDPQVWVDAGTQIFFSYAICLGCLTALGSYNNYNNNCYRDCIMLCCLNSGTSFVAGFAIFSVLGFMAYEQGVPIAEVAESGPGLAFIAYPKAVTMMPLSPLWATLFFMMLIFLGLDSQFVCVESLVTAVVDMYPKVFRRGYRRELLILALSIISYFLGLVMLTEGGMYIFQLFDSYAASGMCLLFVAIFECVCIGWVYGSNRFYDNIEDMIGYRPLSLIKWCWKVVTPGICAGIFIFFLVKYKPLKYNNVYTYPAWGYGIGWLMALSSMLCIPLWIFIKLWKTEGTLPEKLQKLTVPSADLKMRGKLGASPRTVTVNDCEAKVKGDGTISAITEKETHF

[3] = target: T3, Sodium- and chloride-dependent GABA transporter 1 (Mus musculus, UniProt P31648)
[4] = target: T2, GABA transporter 4; experiment: Inhibition of mouse GAT4 transfected in HEK293 cells assessed as reduction in [3H]-GABA uptake preincubated for 25 mins followed by [3H]-GABA addition and measured after 4 mins by liquid scintillation counting analysis; assay type: cell-based
[5] = target: Sodium- and chloride-dependent GABA transporter 1 (Mus musculus) (UniProt P31648); experiment: Inhibition of mouse GAT1 transfected in HEK293 cells assessed as reduction in [3H]-GABA uptake by measuring residual activity at 100 uM preincubated for 25 mins followed by [3H]-GABA addition and measured after 4 mins by liquid scintillation counting analysis relative to control; assay type: cell-based; settings: time 29.0 min
[6] = target: Sodium- and chloride-dependent GABA transporter 1 (Mus musculus) (UniProt P31648); experiment: Inhibition of NO 711 marker binding to mouse GAT1 assessed as residual activity at 100 uM by LC-ESI-MS/MS based competitive MS binding assay relative to control
[7] = Inhibition of mouse GAT3 transfected in HEK293 cells assessed as reduction in [3H]-GABA uptake preincubated for 25 mins followed by [3H]-GABA addition and measured after 4 mins by liquid scintillation counting analysis; assay type: cell-based; settings: HEK293
[8] = target: Cholinesterase (Equus caballus, UniProt P81908)
Chain of Cholinesterase (P81908 whole entry): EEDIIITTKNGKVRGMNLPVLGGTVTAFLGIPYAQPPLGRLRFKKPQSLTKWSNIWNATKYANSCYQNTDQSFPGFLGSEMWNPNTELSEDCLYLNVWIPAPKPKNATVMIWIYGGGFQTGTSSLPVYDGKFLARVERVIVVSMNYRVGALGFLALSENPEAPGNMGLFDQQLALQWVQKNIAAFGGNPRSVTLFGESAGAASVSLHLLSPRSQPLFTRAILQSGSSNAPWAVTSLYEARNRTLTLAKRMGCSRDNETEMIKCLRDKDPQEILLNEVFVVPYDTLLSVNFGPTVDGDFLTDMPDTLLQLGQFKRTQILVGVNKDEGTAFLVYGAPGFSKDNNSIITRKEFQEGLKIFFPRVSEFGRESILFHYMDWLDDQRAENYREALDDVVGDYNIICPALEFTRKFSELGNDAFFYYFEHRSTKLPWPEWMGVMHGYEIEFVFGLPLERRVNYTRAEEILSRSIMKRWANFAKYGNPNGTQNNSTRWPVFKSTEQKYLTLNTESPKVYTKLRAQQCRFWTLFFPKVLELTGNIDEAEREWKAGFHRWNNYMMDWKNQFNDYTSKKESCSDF
Description: Inhibition of equine serum BuChE using butyrylthiocholine iodide as substrate preincubated for 5 mins followed by substrate addition and measured after 5 mins by DTNB reagent based Ellman's method

[9] = target: T4, Beta-secretase 1 (Homo sapiens, UniProt P56817); settings: dose 50.0 µM, time 60.0 min
T4 sequence (P56817 whole entry): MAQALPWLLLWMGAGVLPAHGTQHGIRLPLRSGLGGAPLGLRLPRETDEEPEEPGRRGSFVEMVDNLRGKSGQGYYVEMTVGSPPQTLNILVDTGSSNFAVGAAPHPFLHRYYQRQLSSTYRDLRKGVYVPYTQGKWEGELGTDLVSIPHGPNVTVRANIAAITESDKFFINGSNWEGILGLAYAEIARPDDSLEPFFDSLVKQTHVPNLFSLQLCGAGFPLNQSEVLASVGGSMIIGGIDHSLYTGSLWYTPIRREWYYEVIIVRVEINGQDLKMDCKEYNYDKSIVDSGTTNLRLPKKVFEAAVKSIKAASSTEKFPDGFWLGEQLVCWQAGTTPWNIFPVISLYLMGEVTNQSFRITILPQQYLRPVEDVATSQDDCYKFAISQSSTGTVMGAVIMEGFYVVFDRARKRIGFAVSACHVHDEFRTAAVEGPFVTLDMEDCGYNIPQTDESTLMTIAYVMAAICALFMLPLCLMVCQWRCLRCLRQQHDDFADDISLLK

[10] = target: Acetylcholinesterase (Electrophorus electricus) (UniProt O42275); experiment: Inhibition of electric eel AChE using acetylthiocholine iodide as substrate at 10 uM preincubated for 5 mins followed by substrate addition and measured after 5 mins by DTNB reagent based Ellman's method relative to control; settings: time 10.0 min
Chain of Acetylcholinesterase (Electrophorus electricus) (O42275 24-633 limits assumed): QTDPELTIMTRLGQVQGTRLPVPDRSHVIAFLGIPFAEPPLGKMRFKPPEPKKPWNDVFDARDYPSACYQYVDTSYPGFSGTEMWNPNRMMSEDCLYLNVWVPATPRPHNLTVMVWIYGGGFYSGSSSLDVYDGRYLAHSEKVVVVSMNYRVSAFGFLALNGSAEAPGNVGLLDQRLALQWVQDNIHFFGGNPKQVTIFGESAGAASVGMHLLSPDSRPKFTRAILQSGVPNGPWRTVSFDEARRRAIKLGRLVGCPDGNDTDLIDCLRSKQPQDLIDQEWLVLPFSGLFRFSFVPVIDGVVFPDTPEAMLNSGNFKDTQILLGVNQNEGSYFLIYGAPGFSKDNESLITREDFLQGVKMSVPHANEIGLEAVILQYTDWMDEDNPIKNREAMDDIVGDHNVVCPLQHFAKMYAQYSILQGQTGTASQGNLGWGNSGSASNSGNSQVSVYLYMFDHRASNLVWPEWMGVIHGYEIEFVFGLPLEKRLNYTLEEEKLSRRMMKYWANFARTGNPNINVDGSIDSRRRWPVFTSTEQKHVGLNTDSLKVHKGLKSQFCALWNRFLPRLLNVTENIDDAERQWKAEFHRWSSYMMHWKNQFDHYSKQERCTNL

[11] = target: T5, GABA transporter 2 (Mus musculus) (UniProt P31651); experiment: Inhibition of mouse GAT2 transfected in HEK293 cells assessed as reduction in [3H]-GABA uptake by measuring residual activity at 100 uM preincubated for 25 mins followed by [3H]-GABA addition and measured after 10 mins by liquid scintillation counting analysis relative to control; assay type: cell-based; settings: time 35.0 min
T5 sequence (whole entry): T1 sequence (P31651 whole entry)

[12] = target: Cholinesterase (Equus caballus) (UniProt P81908); experiment: Inhibition of equine serum BuChE using butyrylthiocholine iodide as substrate at 10 uM preincubated for 5 mins followed by substrate addition and measured after 5 mins by DTNB reagent based Ellman's method relative to control; settings: time 10.0 min
Chain of Cholinesterase (Equus caballus) (P81908 whole entry): as the sequence (P81908 whole entry) above

[13] = target: T6, GABA transporter 4 (Mus musculus) (UniProt P31650); experiment: Inhibition of mouse GAT4 transfected in HEK293 cells assessed as reduction in [3H]-GABA uptake by measuring residual activity at 100 uM preincubated for 25 mins followed by [3H]-GABA addition and measured after 4 mins by liquid scintillation counting analysis relative to control; assay type: cell-based; settings: time 29.0 min
T6 sequence (whole entry): T2 sequence (P31650 whole entry)

[14] = target: T3, Sodium- and chloride-dependent GABA transporter 1; experiment: Inhibition of mouse GAT1 transfected in HEK293 cells assessed as reduction in [3H]-GABA uptake preincubated for 25 mins followed by [3H]-GABA addition and measured after 4 mins by liquid scintillation counting analysis; assay type: cell-based
[15] = target: T3, Sodium- and chloride-dependent GABA transporter 1; experiment: Inhibition of NO 711 marker binding to mouse GAT1 by LC-ESI-MS/MS based competitive MS binding assay
[16] = target: Amyloid-beta precursor protein (Homo sapiens) (UniProt P05067); experiment: Inhibition of amyloid beta42 (unknown origin) aggregation expressed in Escherichia coli BL21 (DE3) at 10 uM measured every 5 mins by ThT fluorescence based assay relative to control
Chain of Amyloid-beta precursor protein (Homo sapiens) (P05067 whole entry): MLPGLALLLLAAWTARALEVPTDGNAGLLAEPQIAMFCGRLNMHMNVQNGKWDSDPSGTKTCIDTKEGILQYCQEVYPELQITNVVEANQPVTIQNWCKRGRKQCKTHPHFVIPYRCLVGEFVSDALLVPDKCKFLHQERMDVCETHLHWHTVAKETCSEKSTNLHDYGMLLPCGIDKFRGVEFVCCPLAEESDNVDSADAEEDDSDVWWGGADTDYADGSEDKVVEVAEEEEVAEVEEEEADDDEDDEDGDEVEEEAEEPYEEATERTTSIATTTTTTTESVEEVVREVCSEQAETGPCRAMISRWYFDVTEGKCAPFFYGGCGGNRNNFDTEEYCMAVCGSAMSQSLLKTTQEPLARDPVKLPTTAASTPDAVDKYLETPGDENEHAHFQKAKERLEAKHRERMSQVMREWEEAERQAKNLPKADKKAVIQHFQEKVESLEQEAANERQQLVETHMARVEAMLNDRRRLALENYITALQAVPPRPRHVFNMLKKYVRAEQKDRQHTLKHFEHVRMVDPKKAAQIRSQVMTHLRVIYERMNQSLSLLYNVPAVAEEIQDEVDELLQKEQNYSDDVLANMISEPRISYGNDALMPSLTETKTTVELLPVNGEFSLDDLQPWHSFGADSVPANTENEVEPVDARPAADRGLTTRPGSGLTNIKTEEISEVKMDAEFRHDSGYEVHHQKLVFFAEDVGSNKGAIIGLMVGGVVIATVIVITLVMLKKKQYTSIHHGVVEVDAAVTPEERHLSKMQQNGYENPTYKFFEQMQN

[17] = target: T1, GABA transporter 2; experiment: Inhibition of mouse GAT2 transfected in HEK293 cells assessed as reduction in [3H]-GABA uptake preincubated for 25 mins followed by [3H]-GABA addition and measured after 10 mins by liquid scintillation counting analysis; assay type: cell-based
[18] = target: T4, Beta-secretase 1
[19] = target: Amyloid-beta precursor protein (Homo sapiens) (UniProt P05067); experiment: Inhibition of amyloid beta40 (unknown origin) aggregation at 10 uM measured every 5 mins by ThT fluorescence based assay relative to control

## CN(CCC=C(c1ccccc1)c1ccccc1)C(CN)C(=O)NCc1ccccc1Cl (stereo not given)
[1]
  IC50: 6 µM
[2]
  IC50: 9 µM
[3]
  IC50: 13 µM

## Cc1ccsc1C(=CCCN(C)[C@H]1CCCC[C@H]1C(=O)O)c1sccc1C
[1]
  IC50: 21 µM

## CC(CC(=O)O)NCCOCCN1c2ccccc2Sc2ccccc21 (stereo not given)
[3]
  IC50: 9 µM

## CN(CCOCCN1c2ccccc2Sc2ccccc21)C(CCO)C(=O)NCc1ccc(Cl)cc1 (stereo not given)
[4]; read-out: pIC50 (converted)
  IC50: 20.9 µM
[5]
  Activity: 57%
[6]
  Activity: 96%
[7]; read-out: pIC50 (converted)
  IC50: 7.94 µM
[8]
  IC50: 4.27 µM
[9]
  inhibition: 44%
[10]
  inhibition: < 10%
[11]
  Activity: 55%

## O=C(NC1CCN(C(c2ccccc2)c2ccccc2)CC1)C1CC2c3ccccc3NC2CN1 (stereo not given)
[5]
  Activity: 87%
[6]
  Activity: 73%
[12]
  inhibition: < 10%
[13]
  Activity: 89%
[10]
  inhibition: < 10%
[11]
  Activity: 57%

## CN(CC/C=C/c1ccccc1-c1ccc(Cl)cc1Cl)C(CCO)C(=O)NCc1ccccc1 (stereo not given)
[4]; read-out: pIC50 (converted)
  IC50: 7.41 µM
[5]
  Activity: 45%
[6]
  Activity: 49%
[12]
  inhibition: 47%
[7]; read-out: pIC50 (converted)
  IC50: 7.76 µM
[9]
  inhibition: 52%
[11]
  Activity: 13%

## CN(CCC=C(c1ccccc1)c1ccccc1)C(=O)C1Cc2c([nH]c3ccccc23)CN1 (stereo not given)
[4]; read-out: IC50
  IC50: 6.3 µM
[14]; read-out: pIC50 (converted)
  IC50: 12 µM
[7]; read-out: IC50
  IC50: 4.1 µM
[7]; read-out: pIC50 (converted)
  IC50: 4.07 µM
[8]
  IC50: 3.13 µM
[15]
  Ki: 79.4 µM
[10]
  inhibition: 38%
[11]
  Activity: 55%

## CN(CCOCCN1c2ccccc2Sc2ccccc21)C(CCN)C(=O)NCc1ccc(F)cc1 (stereo not given)
[4]; read-out: pIC50 (converted)
  IC50: 14.1 µM
[14]; read-out: pIC50 (converted)
  IC50: 14.8 µM
[16]
  inhibition: 23.9%
[17]; read-out: pIC50 (converted)
  IC50: 10.2 µM
[7]; read-out: pIC50 (converted)
  IC50: 8.32 µM
[8]
  IC50: 1.02 µM
[15]
  Ki: 77.6 µM
[18]
  IC50: 5.35 µM
[10]
  inhibition: < 10%
[19]
  inhibition: 74.7%

## CN(CCC=C(c1ccccc1)c1ccccc1)C(CO)C(=O)NCc1ccccc1Cl (stereo not given)
[1]
  IC50: 13 µM
[2]
  IC50: 10 µM
[3]
  IC50: 19 µM

## CN(CCOCCN1c2ccccc2Sc2ccccc21)C(CCN)C(=O)NCc1ccccc1Cl (stereo not given)
[4]; read-out: pIC50 (converted)
  IC50: 8.71 µM
[14]; read-out: pIC50 (converted)
  IC50: 12.6 µM
[16]
  inhibition: 27.1%
[17]; read-out: pIC50 (converted)
  IC50: 6.61 µM
[7]; read-out: pIC50 (converted)
  IC50: 6.17 µM
[8]
  IC50: 0.411 µM
[15]
  Ki: 57.5 µM
[18]
  IC50: 5.17 µM
[10]
  inhibition: 14%
[19]
  inhibition: 74%

## CN(CCOCCn1c2ccccc2c2ccccc21)C(CCN)C(=O)NCc1ccccc1Cl (stereo not given)
[4]; read-out: pIC50 (converted)
  IC50: 9.33 µM
[14]; read-out: pIC50 (converted)
  IC50: 19.5 µM
[16]
  inhibition: 30.2%
[17]; read-out: pIC50 (converted)
  IC50: 8.32 µM
[7]; read-out: pIC50 (converted)
  IC50: 12.9 µM
[8]
  IC50: 0.204 µM
[15]
  Ki: 93.3 µM
[9]
  inhibition: 79%
[10]
  inhibition: < 10%
[19]
  inhibition: 92.4%

## CN(CC/C=C/c1ccccc1-c1ccc(Cl)cc1Cl)C(CCN)C(=O)NCc1ccccc1 (stereo not given)
[4]; read-out: pIC50 (converted)
  IC50: 7.41 µM
[14]; read-out: IC50
  IC50: 5.5 µM
[7]; read-out: pIC50 (converted)
  IC50: 6.61 µM
[8]
  IC50: 1.43 µM
[15]
  Ki: 28.2 µM
[18]
  IC50: 5.41 µM
[11]
  Activity: 18%

## CN(CCOCCN1c2ccccc2Sc2ccccc21)C(CCN)C(=O)NCc1ccccc1 (stereo not given)
[4]; read-out: pIC50 (converted)
  IC50: 15.1 µM
[14]; read-out: pIC50 (converted)
  IC50: 15.8 µM
[16]
  inhibition: 34.9%
[17]; read-out: IC50
  IC50: 3 µM
[7]; read-out: pIC50 (converted)
  IC50: 10 µM
[8]
  IC50: 0.35 µM
[15]
  Ki: 67.6 µM
[18]
  IC50: 22.9 µM
[10]
  inhibition: < 10%
[19]
  inhibition: 96.7%

## O=C(O)[C@@H]1CCCN(CCOCCN2c3ccccc3Sc3ccccc32)C1
[3]
  IC50: 0.3 µM
